# Assay results published in patent US20230365566A1, “HETEROCYCLIC AMIDES AND THEIR USE FOR MODULATING SPLICING” (REMIX THERAPEUTICS INC., priority 2020, published 2023).
# Where a name gives a salt, the structure may show the parent alone.
# Legend:
# Assay type in all cases: cell-based
# [1] = system: HTT mRNA alternative junction (AJ); assay: Splicing RT-qPCR assay, increase of HTT alternative junction (AJ) mRNA; conditions: A673 or K562 cells, 24 hours compound treatment, concentration having 50% response in AJ increase
# Method: (§1) Compounds described herein were used to modulate RNA transcript abundance in cells. The expression of a target mRNA was measured by detecting the formation of an exon-exon junction in the canonical transcript (CJ). A compound mediated exon-inclusion event was detected by observing an increase in formation of a new junction with an alternative exon (AJ). Real-time qPCR assays were used to detect these splicing switches and interrogate the potency of various compounds towards different target genes. A high-throughput real time quantitative PCR (RT-qPCR) assay was developed to measure these two isoforms of the mRNA (CJ and AJ) for an exemplary gene, HTT, together with a control housekeeping gene, GAPDH or GUSB or PPIA, used for normalization. Briefly, the A673 or K562 cell line was treated with various compounds described herein (e.g., compounds of Formula (I)). After treatment, the levels of the HTT mRNA targets were determined from each sample of cell lysate by cDNA synthesis followed by qPCR.
# (§2) The A673 cell line was cultured in DMEM with 10% FBS. Cells were diluted with full growth media and plated in a 96-well plate (15,000 cells in 100 ul media per well). The plate was incubated at 37° C. with 5% CO2 for 24 hours to allow cells to adhere. An 11-point 3-fold serial dilution of the compounds was made in DMSO then diluted in media in an intermediate plate. Compounds were transferred from the intermediate plate to the cell plate with the top dose at a final concentration of 10 uM in the well. Final DMSO concentration was kept at or below 0.25%. The cell plate was returned to the incubator at 37° C. with 5% CO2 for an additional 24 hours.
# (§3) The K562 cell line was cultured in IMDM with 10% FBS. For K562, cells were diluted with full growth media and plated in either a 96-well plate (50,000 cells in 50 uL media per well) or a 384-well plate (8,000-40,000 cells in 45 uL media per well). An 11-point 3-fold serial dilution of the compounds were made in DMSO then diluted in media in an intermediate plate. Compound was transferred from the intermediate plate to the cell plate with the top dose at a final concentration of 10 uM in the well. Final DMSO concentration was kept at or below 0.25%. Final volume was 100 uL for 96-well plate and 50 uL for 384-well plate. The cell plate was then placed in an incubator at 37° C. with 5% CO2 for 24 hours.
# (§4) The cells were then gently washed with 50 uL-100 uL cold PBS before proceeding to addition of lysis buffer. 30 uL-50 uL of room temperature lysis buffer with DNAse I (and optionally RNAsin) was added to each well. Cells were shaken/mixed thoroughly at room temperature for 5-10 minutes for lysis to take place and then 3 uL-5 uL of room temperature stop solution was added and wells were shaken/mixed again. After 2-5 minutes, the cell lysate plate was transferred to ice for RT-qPCR reaction setup. The lysates could also be frozen at −80° C. for later use.
# (§5) In some cases, a direct lysis buffer was used. An appropriate volume of 3× lysis buffer (10 mM Tris, 150 mM NaCl, 1.5%-2.5% Igepal and 0.1-1 U/uL RNAsin, pH 7.4) was directly added to either K562 or A673 cells in media and mixed by pipetting 3 times. The plates were then incubated at room temperature with shaking/rocking for 20-50 minutes to allow for lysis to take place. After this time, the cell lysate plate was transferred to ice to set up for the RT-qPCR reactions. The lysates could also be frozen at −80° C. for later use.
# (§6) To set up 10 uL RT-qPCR reactions, cell lysates were transferred to 384-well qPCR plates containing the master mix according to the table below. The plates were sealed, gently vortexed, and spun down before the run. The volumes were adjusted accordingly in some instances where the reaction was carried in 20 uL. The table below summarizes the components of the RT-qPCR reactions:
# (§7) The RT-qPCR reaction was performed using a QuantStudio (ThermoFisher) under the following fast cycling conditions. […]
# [2] = system: HTT mRNA canonical junction (CJ); assay: Splicing RT-qPCR assay, decrease of HTT canonical junction (CJ) mRNA; conditions: A673 or K562 cells, 24 hours compound treatment, concentration having 50% response in CJ decrease
# Method: as §1, §2, §3, §4, §5, §6, §7
# [3] = system: Target C CJ mRNA; assay: Gene panel canonical junction qPCR assay, Target C; conditions: protocol of Example 42, read-out: Target C IC50 (decrease in CJ mRNA levels)
# Method: as §1, §2, §3
# (§8) The data analysis was performed by first determining the ACt vs the housekeeper gene. This ACt was then normalized against the DMSO control (AACt) and converted to RQ (relative quantification) using the 2^(−ΔΔCt) equation. The RQ were then converted to a percentage response by arbitrarily setting an assay window of 3.5 ΔCt for HTT-CJ and an assay window of 9 ΔCt for HTT-AJ. […] The percentage response was then fitted to the 4 parametric logistic equation to evaluate the concentration dependence of compound treatment. The increase in AJ mRNA is reported as AC50 (compound concentration having 50% response in AJ increase) while the decrease in CJ mRNA levels is reported as IC50 (compound concentration having 50% response in CJ decrease).
# (§9) Additional studies were carried out for a larger panel of genes using the protocol provided above. The junction between flanking upstream and downstream exons was used to design canonical junction qPCR assays. At least one of the forward primer, reverse primer or the CY5-labeled 5′ nuclease probe (with 3′ quencher such as ZEN/Iowa Black FQ) was designed to overlap with the exon junction to capture the CJ mRNA transcript. BLAST was used to confirm the specificity of the probeset and parameters such as melting temperature, GC content, amplicon size, and primer dimer formation are considered during their design. Data for the decrease in CJ mRNA levels for three exemplary genes (HTT, SMN2, and Target C) analyzed in this panel are reported as IC50 (compound concentration having 50% response in CJ decrease).
# [4] = system: HTT CJ mRNA; assay: Gene panel canonical junction qPCR assay, HTT; conditions: protocol of Example 42, read-out: HTT IC50 (decrease in CJ mRNA levels)
# Method: as §1, §2, §3, §8, §9
# [5] = system: SMN2 CJ mRNA; assay: Gene panel canonical junction qPCR assay, SMN2; conditions: protocol of Example 42, read-out: SMN2 IC50 (decrease in CJ mRNA levels)
# Method: as §1, §2, §3, §8, §9
SMILES,IC50 [3] [nM],IC50 [4] [nM],IC50 [5] [nM],AC50 [1] [nM],AC50 [2] [nM]
"Cc1cn2nc(NC(=O)c3ccc(N4CCNCC4)c4cc(C)oc34)cc(C)c2n1 [Compound 148, N-[2,8-dimethylimidazo[1,2-b]pyridazin-6-yl]-2-methyl-4-(piperazin-1-yl)-1-benzofuran-7-carboxamide]",1000 to 10000,1000 to 10000,100 to 1000,1000 to 10000,1000 to 10000
"Cc1cn2cc(NC(=O)c3ccc(C4CCNCC4)c4ccoc34)cc(F)c2n1 [Compound 149, N-[8-fluoro-2-methylimidazo[1,2-a]pyridin-6-yl]-4-(piperidin-4-yl)-1-benzofuran-7-carboxamide hydrochloride]",> 10000,1000 to 10000,< 100,1000 to 10000,1000 to 10000
"Cc1cn2cc(NC(=O)c3ccc(C4CCNCC4)c4c3OCC4)cc(F)c2n1 [Compound 188, N-[8-fluoro-2-methylimidazo[1,2-a]pyridin-6-yl]-4-(piperidin-4-yl)-2,3-dihydro-1-benzofuran-7-carboxamide]",1000 to 10000,> 10000,100 to 1000,> 10000,> 10000
CCC1CN(c2ccc(C(=O)Nc3cc(F)c4nc(C)cn4c3)c3oc(C)cc23)CCN1 (stereo not drawn) [Compound 192],1000 to 10000,1000 to 10000,< 100,,
Cc1cn2cc(NC(=O)c3ccc(N4CC(C)(C)NC(C)(C)C4)c4cc(C)oc34)cc(F)c2n1 [Compound 195],> 10000,> 10000,< 100,,
"Cc1cn2nc(-c3ccc(C(=O)NC4CCNCC4)c4oc(C)cc34)cc(C)c2n1 [Compound 282, 4-{2,8-dimethylimidazo[1,2-b]pyridazin-6-yl}-2-methyl-N-(piperidin-4-yl)-1-benzofuran-7-carboxamide]",,,,1000 to 10000,1000 to 10000
"Cc1cn2cc(-c3ccc(C(=O)NC4CCNCC4)c4oc(C)cc34)cc(F)c2n1 [Compound 283, 4-{8-fluoro-2-methylimidazo[1,2-a]pyridin-6-yl}-2-methyl-N-(piperidin-4-yl)-1-benzofuran-7-carboxamide]",,,,> 10000,1000 to 10000
"CCn1cc2c(N3CCNCC3)ccc(C(=O)Nc3cc(Cl)c4nc(C)cn4c3)c2n1 [Compound 284, N-{8-chloro-2-methylimidazo[1,2-a]pyridin-6-yl}-2-ethyl-4-(piperazin-1-yl)indazole-7-carboxamide]",,,,> 10000,1000 to 10000
"Cc1cn2cc(NC(=O)c3ccc(C4CCNCC4)c4cn(C)nc34)cc(Cl)c2n1 [Compound 285, N-{8-chloro-2-methylimidazo[1,2-a]pyridin-6-yl}-2-methyl-4-(piperidin-4-yl) indazole-7-carboxamide]",,,,100 to 1000,100 to 1000
"Cc1cn2cc(NC(=O)c3ccc(N4CCNCC4)c4c[nH]nc34)cc(Cl)c2n1 [Compound 286, N-{8-chloro-2-methylimidazo[1,2-a]pyridin-6-yl}-4-(piperazin-1-yl)-2H-indazole-7-carboxamide]",,,,> 10000,> 10000

# Further lines, with some results ahead:
IC50 [3] [nM],IC50 [4] [nM],IC50 [5] [nM],SMILES,AC50 [1] [nM],AC50 [2] [nM]
> 10000,1000 to 10000,,"Cc1cn2nc(NC(=O)c3ccc(C4CCNCC4)c4cc(C)oc34)cc(C)c2n1 [Compound 118, N-[2,8-dimethylimidazo[1,2-b]pyridazin-6-yl]-2-methyl-4-(piperidin-4-yl)-1-benzofuran-7-carboxamide]",1000 to 10000,1000 to 10000
> 10000,1000 to 10000,100 to 1000,"Cc1cn2nc(NC(=O)c3ccc(C4CCNCC4)c4ccoc34)cc(C)c2n1 [Compound 119, N-[2,8-dimethylimidazo[1,2-b]pyridazin-6-yl]-4-(piperidin-4-yl)-1-benzofuran-7-carboxamide]",> 10000,1000 to 10000
,1000 to 10000,100 to 1000,Cc1cn2cc(NC(=O)c3ccc(N4CCNCC4)c4nc(C)oc34)cc(F)c2n1 [Compound 140],1000 to 10000,1000 to 10000
100 to 1000,< 100,< 100,"Cc1cn2cc(NC(=O)c3ccc(N4CCNCC4)c4oc(C)nc34)cc(F)c2n1 [Compound 141, N-[8-fluoro-2-methylimidazo[1,2-a]pyridin-6-yl]-2-methyl-7-(piperazin-1-yl)-1,3-benzoxazole-4-carboxamide hydrochloride]",< 100,< 100
100 to 1000,1000 to 10000,< 100,"Cc1cn2cc(NC(=O)c3ccc(N4CCNCC4)c4cc(C)oc34)cc(F)c2n1 [Compound 142, N-[8-fluoro-2-methylimidazo[1,2-a]pyridin-6-yl]-2-methyl-4-(piperazin-1-yl)-1-benzofuran-7-carboxamide]",1000 to 10000,1000 to 10000
< 100,100 to 1000,< 100,"Cc1cn2cc(NC(=O)c3ccc(N4CCNCC4)c4cn(C)nc34)cc(F)c2n1 [Compound 143, N-[8-fluoro-2-methylimidazo[1,2-a]pyridin-6-yl]-2-methyl-4-(piperazin-1-yl) indazole-7-carboxamide]",100 to 1000,100 to 1000
100 to 1000,1000 to 10000,< 100,"Cc1cn2cc(NC(=O)c3ccc(C4CCNCC4)c4cc(C)oc34)cc(F)c2n1 [Compound 145, N-[8-fluoro-2-methylimidazo[1,2-a]pyridin-6-yl]-2-methyl-4-(piperidin-4-yl)-1-benzofuran-7-carboxamide]",1000 to 10000,1000 to 10000
100 to 1000,100 to 1000,< 100,"Cc1cn2cc(NC(=O)c3ccc(C4CCNCC4)c4oc(C)nc34)cc(F)c2n1 [Compound 187, N-[8-fluoro-2-methylimidazo[1,2-a]pyridin-6-yl]-2-methyl-7-(piperidin-4-yl)-1,3-benzoxazole-4-carboxamide]",100 to 1000,100 to 1000
